IC50 data for 26 molecules are collected here from patent publication US20110224210A1, “NOVEL BIS-AMIDES AS ANTI-MALARIAL AGENTS” (priority 2008, published 2011).

The structures appear in SMILES notation. A value given as a limit tells only on which side of the number the result lay.

In the test the test system is P. falciparum K1 (strain resistant to chloroquine and pyrimethamine), erythrocytic stages. Briefly: Plasmodium falciparum in vitro assay, [3H] hypoxanthine incorporation. It counts as cell-based. As to conditions: Plasmodium falciparum, K1, P. falciparum strain K1; [3H] hypoxanthine incorporation; read-out: IC50 (nM) on K1. Put shortly:
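K1 strain parasites grown in human red cells, 2.5% haematocrit, 0.3% parasitaemia, 37 °C, 4% CO2/3% O2; compounds in seven serial doubling dilutions.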

With `COCCN(C)C(=O)[C@H](Cc1ccccc1)N(Cc1ccc(N2CCN(C(C)=O)CC2)cc1)C(=O)C=Cc1ccc(C)nc1` [Example 112, (S)-N-[4-(4-Acetyl-piperazin-1-yl)-benzyl]-N-{1-[(2-methoxy-ethyl)-methyl-carbamoyl]-2-phenyl-ethyl}-3-(6-methyl-pyridin-3-yl)-acrylamide], the IC50 (commonly the concentration that inhibits the measured activity by half) was found to be 153 nM. Then `COCCN(C)C(=O)[C@H](Cc1ccccc1)N(Cc1ccc(N2CCN(C(C)=O)CC2)cc1)C(=O)C=Cc1ccc(Cl)nc1` [Example 113, (S)-N-[4-(4-Acetyl-piperazin-1-yl)-benzyl]-3-(6-chloro-pyridin-3-yl)-N-{1-[(2-methoxy-ethyl)-methyl-carbamoyl]-2-phenyl-ethyl}-acrylamide], with 84 nM. Then `COCCN(C)C(=O)[C@H](Cc1ccccc1)N(Cc1ccc(N2CCN(C(C)=O)CC2)cc1)C(=O)C=Cc1ccc(C)cn1` [Example 114, (S)-N-[4-(4-Acetyl-piperazin-1-yl)-benzyl]-N-{1-[(2-methoxy-ethyl)-methyl-carbamoyl]-2-phenyl-ethyl}-3-(5-methyl-pyridin-2-yl)-acrylamide], with 107 nM; and `COCCN(C)C(=O)[C@H](Cc1ccccc1)N(Cc1ccc(N2CCN(C(C)=O)CC2)cc1)C(=O)C=Cc1ccc(OC)nc1` [Example 115, (S)-N-[4-(4-Acetyl-piperazin-1-yl)-benzyl]-N-{1-[(2-methoxy-ethyl)-methyl-carbamoyl]-2-phenyl-ethyl}-3-(6-methoxy-pyridin-3-yl)-acrylamide], with 32 nM. Then `COCCN(C)C(=O)[C@H](Cc1ccccc1)N(Cc1ccc(N2CCN(C(C)=O)CC2)cc1)C(=O)C=Cc1ccc(C(F)(F)F)cn1` [Example 116, (S)-N-[4-(4-Acetyl-piperazin-1-yl)-benzyl]-N-{1-[(2-methoxy-ethyl)-methyl-carbamoyl]-2-phenyl-ethyl}-3-(5-trifluoromethyl-pyridin-2-yl)-acrylamide], with below 8 nM; and `COCCN(C)C(=O)[C@H](Cc1ccccc1)N(Cc1ccc(N2CCN(C(C)=O)CC2)cc1)C(=O)C=Cc1cnn(C)c1C` [Example 117, (S)-N-[4-(4-Acetyl-piperazin-1-yl)-benzyl]-3-(1,5-dimethyl-1H-pyrazol-4-yl)-N-{1-[(2-methoxy-ethyl)-methyl-carbamoyl]-2-phenyl-ethyl}-acrylamide], with 117 nM; and `COCCN(C)C(=O)[C@H](Cc1ccccc1)N(Cc1ccc(N2CCN(C(C)=O)CC2)cc1)C(=O)C=Cc1cnc(OC)nc1` [Example 118, (S)-N-[4-(4-Acetyl-piperazin-1-yl)-benzyl]-N-{1-[(2-methoxy-ethyl)-methyl-carbamoyl]-2-phenyl-ethyl}-3-(2-methoxy-pyrimidin-5-yl)-acrylamide], with 104 nM. As for `COCCN(C)C(=O)[C@H](Cc1ccccc1)N(Cc1ccc(-c2cncnc2)cc1)C(=O)C=Cc1ccn(C)n1` [Example 119, (S)-N-{1-[(2-Methoxy-ethyl)-methyl-carbamoyl]-2-phenyl-ethyl}-3-(1-methyl-1H-pyrazol-3-yl)-N-(4-pyrimidin-5-yl-benzyl)-acrylamide], the IC50 was determined as 81 nM. Then `COCCN(C)C(=O)[C@H](Cc1ccccc1)N(Cc1ccc(-c2cncnc2)cc1)C(=O)C=Cc1cnc(C)n1C` [Example 120, (S)-3-(2,3-Dimethyl-3H-imidazol-4-yl)-N-{1-[(2-methoxy-ethyl)-methyl-carbamoyl]-2-phenyl-ethyl}-N-(4-pyrimidin-5-yl-benzyl)-acrylamide], with 285 nM. Next, `COCCN(C)C(=O)[C@H](Cc1ccccc1)N(Cc1ccc(-c2cncnc2)cc1)C(=O)C=Cc1sc(C)nc1C` [Example 121, (S)-3-(2,4-Dimethyl-thiazol-5-yl)-N-{1-[(2-methoxy-ethyl)-methyl-carbamoyl]-2-phenyl-ethyl}-N-(4-pyrimidin-5-yl-benzyl)-acrylamide]: 28 nM; `COCCN(C)C(=O)[C@H](Cc1ccccc1)N(Cc1ccc(-c2cncnc2)cc1)C(=O)C=Cc1csc(C)n1` [Example 122, (S)-N-{1-[(2-Methoxy-ethyl)-methyl-carbamoyl]-2-phenyl-ethyl}-3-(2-methyl-thiazol-4-yl)-N-(4-pyrimidin-5-yl-benzyl)-acrylamide]: 156 nM. Next, `COCCN(C)C(=O)[C@H](Cc1ccccc1)N(Cc1ccc(-c2cncnc2)cc1)C(=O)C=Cc1cc(C)on1` [Example 123, (S)-N-{1-[(2-Methoxy-ethyl)-methyl-carbamoyl]-2-phenyl-ethyl}-3-(5-methyl-isoxazol-3-yl)-N-(4-pyrimidin-5-yl-benzyl)-acrylamide]: 296 nM; `COCCN(C)C(=O)[C@H](Cc1ccccc1)N(Cc1ccc(-c2cncnc2)cc1)C(=O)C=Cc1c(C)noc1C` [Example 124, (S)-3-(3,5-Dimethyl-isoxazol-4-yl)-N-{1-[(2-methoxy-ethyl)-methyl-carbamoyl]-2-phenyl-ethyl}-N-(4-pyrimidin-5-yl-benzyl)-acrylamide]: 110 nM. As to `COCCN(C)C(=O)[C@H](Cc1ccccc1)N(Cc1ccc(-c2cncnc2)cc1)C(=O)C=Cc1csnn1` [Example 125, (S)-N-{1-[(2-Methoxy-ethyl)-methyl-carbamoyl]-2-phenyl-ethyl}-N-(4-pyrimidin-5-yl-benzyl)-3-[1,2,3]thiadiazol-4-yl-acrylamide], the IC50 stood at 439 nM. Then `COCCN(C)C(=O)[C@H](Cc1ccccc1)N(Cc1ccc(-c2cncnc2)cc1)C(=O)C=Cc1ccc(OC)nn1` [Example 126, (S)-N-{1-[(2-Methoxy-ethyl)-methyl-carbamoyl]-2-phenyl-ethyl}-3-(6-methoxy-pyridazin-3-yl)-N-(4-pyrimidin-5-yl-benzyl)-acrylamide], with 160 nM. Then `COCCN(C)C(=O)[C@H](Cc1ccccc1)N(Cc1ccc(-c2cncnc2)cc1)C(=O)C=Cc1ccc(Cl)cn1` [Example 127, (S)-3-(5-Chloro-pyridin-2-yl)-N-{1-[(2-methoxy-ethyl)-methyl-carbamoyl]-2-phenyl-ethyl}-N-(4-pyrimidin-5-yl-benzyl)-acrylamide], with 21 nM. Next, `COCCN(C)C(=O)[C@H](Cc1ccccc1)N(Cc1ccc(-c2cncnc2)cc1)C(=O)C=Cc1ccc(Cl)nc1` [Example 128, (S)-3-(6-Chloro-pyridin-3-yl)-N-{1-[(2-methoxy-ethyl)-methyl-carbamoyl]-2-phenyl-ethyl}-N-(4-pyrimidin-5-yl-benzyl)-acrylamide]: 94 nM.

With `COCCN(C)C(=O)[C@H](Cc1ccccc1)N(Cc1ccc(-c2cncnc2)cc1)C(=O)C=Cc1cnc(OC)nc1` [Example 129, (S)-N-{1-[(2-Methoxy-ethyl)-methyl-carbamoyl]-2-phenyl-ethyl}-3-(2-methoxy-pyrimidin-5-yl)-N-(4-pyrimidin-5-yl-benzyl)-acrylamide], the IC50 stood at 19 nM. Then `COCCN(C)C(=O)[C@H](Cc1ccccc1)N(Cc1ccc(-c2cncnc2)cc1)C(=O)C=Cc1ccc(C(F)(F)F)cn1` [Example 130, (S)-N-{1-[(2-Methoxy-ethyl)-methyl-carbamoyl]-2-phenyl-ethyl}-N-(4-pyrimidin-5-yl-benzyl)-3-(5-trifluoromethyl-pyridin-2-yl)-acrylamide], with below 8 nM; and `COCCN(C)C(=O)[C@H](Cc1ccccc1)N(Cc1ccc(-c2cccnc2)cc1)C(=O)C=Cc1cnc(C)n1C` [Example 131, (S)-3-(2,3-Dimethyl-3H-imidazol-4-yl)-N-{1-[(2-methoxy-ethyl)-methyl-carbamoyl]-2-phenyl-ethyl}-N-(4-pyridin-3-yl-benzyl)-acrylamide], with 282 nM. Then `COCCN(C)C(=O)[C@H](Cc1ccccc1)N(Cc1ccc(-c2cccnc2)cc1)C(=O)C=Cc1sc(C)nc1C` [Example 132, (S)-3-(2,4-Dimethyl-thiazol-5-yl)-N-{1-[(2-methoxy-ethyl)-methyl-carbamoyl]-2-phenyl-ethyl}-N-(4-pyridin-3-yl-benzyl)-acrylamide], with 28 nM; and `COCCN(C)C(=O)[C@H](Cc1ccccc1)N(Cc1ccc(-c2cccnc2)cc1)C(=O)C=Cc1nc(C)oc1C` [Example 133, (S)-3-(2,5-Dimethyl-oxazol-4-yl)-N-{1-[(2-methoxy-ethyl)-methyl-carbamoyl]-2-phenyl-ethyl}-N-(4-pyridin-3-yl-benzyl)-acrylamide], with 82 nM; and `COCCN(C)C(=O)[C@H](Cc1ccccc1)N(Cc1ccc(-c2cccnc2)cc1)C(=O)C=Cc1ccc(Cl)nc1` [Example 134, (S)-3-(6-Chloro-pyridin-3-yl)-N-{1-[(2-methoxy-ethyl)-methyl-carbamoyl]-2-phenyl-ethyl}-N-(4-pyridin-3-yl-benzyl)-acrylamide], with 33 nM. Next, `COCCN(C)C(=O)[C@H](Cc1ccccc1)N(Cc1ccc(-c2cccnc2)cc1)C(=O)C=Cc1ccc(OC)nc1` [Example 135, (S)-N-{1-[(2-Methoxy-ethyl)-methyl-carbamoyl]-2-phenyl-ethyl}-3-(6-methoxy-pyridin-3-yl)-N-(4-pyridin-3-yl-benzyl)-acrylamide]: below 8 nM; `CN(C)C1CCN(C(=O)[C@H](Cc2ccccc2)N(Cc2ccc(N3CCOCC3)nc2)C(=O)C=Cc2ccc(C(F)(F)F)cc2)CC1` [Example 136, (S)-N-[1-Benzyl-2-(4-dimethylamino-piperidin-1-yl)-2-oxo-ethyl]-N-(6-morpholin-4-yl-pyridin-3-ylmethyl)-3-(4-trifluoromethyl-phenyl)-acrylamide]: 74 nM. Turning to `O=C([C@H](Cc1ccccc1)N(Cc1ccc(N2CCOCC2)nc1)C(=O)C=Cc1ccc(C(F)(F)F)cc1)N1CCC(Cc2ccccc2)CC1` [Example 143, (S)-N-[1-Benzyl-2-(4-benzyl-piperidin-1-yl)-2-oxo-ethyl]-N-(6-morpholin-4-yl-pyridin-3-ylmethyl)-3-(4-trifluoromethyl-phenyl)-acrylamide], the IC50 was found to be 5 nM.
